# Where “and” joins values, the source holds several entries; their conditions need not be identical. Identical values can stand only once.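 In this assay, cells in 96-well plates receive the compound at five concentrations for 48 hours. Endpoints are linearly interpolated between the surrounding concentrations. At the GI50, growth is halved. The concentration for full growth arrest is given as TGI.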
# How the values were obtained:
# Assay in all cases: NCI anticancer screen, dose series, 48 h
# SN12C renal = system: SN12C renal
# RPMI-8226 leukemia = system: RPMI-8226 leukemia
# NCI-H460 lung = system: NCI-H460 lung
# KM12 colon = system: KM12 colon
# T-47D breast = system: T-47D breast
# BT-549 breast = system: BT-549 breast
# HCC-2998 colon = system: HCC-2998 colon
# SK-MEL-5 melanoma = system: SK-MEL-5 melanoma
# NCI-H522 lung = system: NCI-H522 lung
# HL-60(TB) leukemia = system: HL-60(TB) leukemia
SMILES,GI50 (SN12C renal),TGI (SN12C renal),GI50 (RPMI-8226 leukemia),TGI (RPMI-8226 leukemia),GI50 (NCI-H460 lung),TGI (NCI-H460 lung),GI50 (KM12 colon),TGI (KM12 colon),GI50 (T-47D breast),TGI (T-47D breast),GI50 (BT-549 breast),TGI (BT-549 breast),GI50 (HCC-2998 colon),TGI (HCC-2998 colon),GI50 (SK-MEL-5 melanoma),TGI (SK-MEL-5 melanoma),GI50 (NCI-H522 lung),TGI (NCI-H522 lung),GI50 (HL-60(TB) leukemia),TGI (HL-60(TB) leukemia)
O=C(c1ccccc1O)c1[nH]c(Cl)c(Cl)c1-n1c(C(=O)c2ccccc2O)cc(Cl)c1Cl,0.399 µM and 0.368 µM,11.9 µM and 11 µM,0.366 µM and 0.265 µM,4.21 µM and 1.57 µM,0.456 µM and 0.427 µM,11.2 µM and 10.2 µM,1.92 µM and 0.75 µM,12.1 µM and 11.9 µM,0.36 µM and 0.46 µM,3.34 µM and 11.2 µM,1.22 µM and 0.675 µM,6.74 µM and 4.96 µM,0.994 µM and 0.931 µM,12.7 µM and 11.6 µM,0.314 µM and 0.22 µM,1.38 µM and 0.589 µM,0.317 µM and 0.363 µM,1.4 µM and 7.68 µM,1.19 µM and 0.432 µM,5.48 µM and 3.58 µM
Cc1cc(O)cc(C)c1/C=C/c1cncc(C(=O)OC(C)(C)C)c1,12.6 µM,> 25 µM,> 22.4 µM,> 25 µM,13.5 µM,> 25 µM,15.2 µM,> 25 µM,10.7 µM,> 25 µM,> 20.8 µM,> 25 µM,> 25 µM,> 25 µM,10.2 µM,> 25 µM,7.95 µM,24.8 µM,8.65 µM,22.7 µM
Nc1cc2nc3ccccc3oc-2cc1=O,1.46 µM,2.9 µM,0.951 µM,> 20.4 µM,1.77 µM,4.36 µM,3.71 µM,43.5 µM,14.9 µM,> 100 µM,1.54 µM,3.53 µM,4.34 µM,17.4 µM,1.16 µM,2.38 µM,3.45 µM,10.1 µM,3.19 µM,> 100 µM
CC1(C)N=C(N)N=C(N)N1c1ccc(Cl)c(Cl)c1,0.694 µM,> 100 µM,,> 100 µM,0.0919 µM,> 100 µM,0.648 µM,> 100 µM,> 45.8 µM,> 100 µM,6.66 µM,> 100 µM,0.508 µM,> 40.7 µM,0.547 µM,> 100 µM,6.67 µM,> 100 µM,6.27 µM,> 100 µM
Oc1c2c(c(O)c3ccccc13)C1(N=N2)c2ccccc2Oc2ccccc21,,27 µM,,14.7 µM,,46.3 µM,,38.6 µM,,47.8 µM,,23.5 µM,,38.7 µM,,27.2 µM,,5.13 µM,,62.1 µM
FC(F)(F)c1[nH]ncc1-c1nc2ccc3[nH]ncc3c2c2c1CCCC2,1.53 µM,5.6 µM,1.42 µM,6.66 µM,1.72 µM,9.34 µM,1.19 µM,11.8 µM,2.03 µM,9.39 µM,1.21 µM,2.66 µM,1.58 µM,3.89 µM,1.55 µM,2.96 µM,1.24 µM,4.77 µM,2.09 µM,6.22 µM
CCN(CC)c1ccc(/C=C/C=C(/C#N)C(N)=S)cc1,7.56 µM,75.2 µM,2.14 µM,7.88 µM,18.1 µM,> 100 µM,9.6 µM,> 100 µM,2.96 µM,> 100 µM,2.73 µM,16 µM,6.46 µM,> 100 µM,5.96 µM,> 100 µM,8.54 µM,47.8 µM,2.53 µM,18.9 µM
CC(=O)/C(=C\c1c(-c2ccccc2)[nH]c2ccccc12)S(=O)(=O)c1ccccc1,1.82 µM,9.59 µM,2.23 µM,7.14 µM,1.04 µM,2.68 µM,1.01 µM,2.65 µM,1.26 µM,7.03 µM,1.76 µM,11 µM,1.38 µM,2.78 µM,0.78 µM,2.21 µM,1.17 µM,4.35 µM,1.69 µM,5.28 µM
O=c1cc(O)c2c(O)cc(O)cc2o1,,> 100 µM,,> 100 µM,,> 100 µM,,,,> 100 µM,,> 100 µM,,> 100 µM,,> 100 µM,,> 100 µM,,> 100 µM
CC(=O)NC1=C(Sc2ccc(Cl)cc2)C(=O)c2ccccc2C1=O,,16.2 µM,,3.65 µM,,23.2 µM,,16.6 µM,,4.95 µM,,18 µM,,27.8 µM,,4.8 µM,,1.18 µM,,1.63 µM
CCCC#CCOC(=O)c1cc([N+](=O)[O-])cc([N+](=O)[O-])c1,,> 100 µM,,> 100 µM,,> 100 µM,,> 100 µM,,> 100 µM,,> 100 µM,,> 100 µM,,> 100 µM,,> 100 µM,,> 100 µM
CNC(=O)c1cc2c(Oc3ccc(NC(=S)NC(=O)Cc4ccccc4)cc3F)ccnc2cc1OC,2.18 µM,> 100 µM,> 28.3 µM,> 100 µM,> 100 µM,> 100 µM,3.91 µM,> 100 µM,2.8 µM,> 100 µM,2.91 µM,> 28.7 µM,> 100 µM,> 100 µM,> 20.6 µM,> 100 µM,10 µM,> 100 µM,> 100 µM,> 100 µM
CC(C)(C)OC(=O)NCCCCCCCCCCn1c2c(c3ccccc3c1=O)C(=O)c1ccccc1-2,> 100 µM,> 100 µM,79.7 µM,> 100 µM,> 100 µM,> 100 µM,> 100 µM,> 100 µM,> 100 µM,> 100 µM,57.5 µM,> 100 µM,> 100 µM,> 100 µM,> 100 µM,> 100 µM,86.1 µM,> 100 µM,32.6 µM,> 100 µM
Cc1ncc(-c2ccnc(Nc3ccc(S(C)(=O)=O)cc3)n2)n1C(C)C,1.34 µM,9.84 µM,1.57 µM,6.18 µM,0.931 µM,> 5.33 µM,0.527 µM,2.33 µM,1.38 µM,> 8.75 µM,0.925 µM,7.22 µM,1.35 µM,5.59 µM,0.811 µM,3.29 µM,1.52 µM,5.29 µM,1.06 µM,4.64 µM
CN(C)CCNc1nc2ccccc2c2occc12,27.7 µM,82.5 µM,58 µM,> 100 µM,31.7 µM,> 100 µM,51.7 µM,> 100 µM,> 100 µM,> 100 µM,> 100 µM,> 100 µM,36 µM,89.5 µM,14.5 µM,32.2 µM,62.3 µM,> 100 µM,49.6 µM,> 100 µM
CN(C)c1ccc(C(=C2C=CC(=[N+](C)C)C=C2)c2ccccc2Cl)cc1,0.239 µM,1.67 µM,0.184 µM,0.893 µM,0.245 µM,0.804 µM,0.283 µM,0.929 µM,0.188 µM,0.901 µM,0.373 µM,2.56 µM,0.354 µM,1.28 µM,0.301 µM,1.05 µM,0.268 µM,0.925 µM,0.277 µM,3.84 µM
Nc1nc(-c2cc(-c3cccc4ccccc34)nc(N)n2)cc(-c2cccc3ccccc23)n1,,> 100 µM,,> 100 µM,,> 100 µM,,> 100 µM,,> 100 µM,,> 100 µM,,> 100 µM,,> 100 µM,,> 100 µM,,> 100 µM
COc1ccc(/C(=N/O)c2cc(OC)c(OC)c(OC)c2)c(OC)c1N,15.4 µM,> 100 µM,5.35 µM,> 100 µM,3.92 µM,> 100 µM,3.27 µM,> 100 µM,26.2 µM,> 100 µM,8.79 µM,> 100 µM,4.29 µM,> 100 µM,5.34 µM,> 100 µM,4.02 µM,> 100 µM,3.38 µM,14.3 µM
COc1cc(C2C3=C(COC3=O)Nc3cc4c(cc32)OCO4)cc2c1OCO2 (configuration not stated),0.154 µM,> 100 µM,0.068 µM,> 100 µM,0.0734 µM,> 35 µM,0.0355 µM,1.92 µM,> 100 µM,> 100 µM,1.66 µM,> 100 µM,0.109 µM,,0.101 µM,0.374 µM,0.0219 µM,0.0665 µM,0.059 µM,
Cc1cc(S(N)(=O)=O)c(S/C(=N\Nc2ccc([N+](=O)[O-])cc2)c2ccc3ccccc3c2)cc1Cl,18.6 µM,44.1 µM,37.7 µM,> 100 µM,18.5 µM,> 100 µM,25.2 µM,99 µM,,83.7 µM,20.5 µM,69.7 µM,14.7 µM,30.1 µM,16.5 µM,36.8 µM,22.9 µM,> 100 µM,> 100 µM,> 100 µM
CCN1C(=O)N(CC)C2C1NN=c1s/c(=C\c3cccc([N+](=O)[O-])c3)c(=O)n12 (configuration not stated),0.149 µM,> 100 µM,0.127 µM,> 100 µM,0.0491 µM,> 100 µM,0.0404 µM,> 100 µM,,> 100 µM,0.291 µM,33.5 µM,0.229 µM,> 100 µM,0.0511 µM,1.17 µM,0.0427 µM,3.4 µM,0.0496 µM,0.21 µM
CSc1nc(N)c2c(n1)NC(c1ccccc1)C1CCc3ccccc3C1=N2 (configuration not stated),30.9 µM,> 100 µM,5.72 µM,> 100 µM,8.29 µM,> 100 µM,6.52 µM,> 100 µM,2.27 µM,15.7 µM,> 100 µM,> 100 µM,> 100 µM,> 100 µM,4.79 µM,> 100 µM,2.59 µM,8.84 µM,4 µM,> 100 µM
Nc1ncnc2nn(C3OC(CO)C(O)C3O)nc12 (configuration not stated),,> 68.5 µM,,26.5 µM,,25.3 µM,,> 100 µM,,> 44.5 µM,,> 100 µM,,32.8 µM,,39.7 µM,,> 100 µM,,23.6 µM
COc1ccc(Oc2cc(NCCC(F)(F)F)c3ncc(-c4ccc(C(=O)NC5CC5)c(C)c4)n3n2)c(F)c1F,0.527 µM,> 100 µM,0.656 µM,> 100 µM,< 0.01 µM,> 54 µM,1.44 µM,> 100 µM,1.9 µM,> 92.7 µM,2.14 µM,42.1 µM,12.3 µM,> 100 µM,4.75 µM,> 100 µM,0.381 µM,> 64.8 µM,2.22 µM,> 100 µM
COc1ccc2nccc(/C=C/c3ccnc4ccc(OC)cc34)c2c1,> 100 µM,> 100 µM,17.8 µM,39.9 µM,> 100 µM,> 100 µM,> 73.1 µM,> 100 µM,43.8 µM,> 87.3 µM,> 63.4 µM,> 100 µM,> 100 µM,> 100 µM,> 71.4 µM,> 100 µM,26.9 µM,89.2 µM,> 50.8 µM,> 86.5 µM
N=C(N)SCc1ccc([N+](=O)[O-])cc1[N+](=O)[O-],12.1 µM,27.2 µM,5.26 µM,72.2 µM,12.7 µM,32.7 µM,9.5 µM,22.7 µM,2.59 µM,11.4 µM,7.35 µM,28.6 µM,6.05 µM,18.1 µM,6.38 µM,19.6 µM,1.48 µM,3.12 µM,3.38 µM,17.3 µM
COC(=O)/C(=C\c1c(-c2ccccc2)[nH]c2ccccc12)S(C)(=O)=O,3.14 µM,32 µM,6.15 µM,96.4 µM,3.54 µM,14.2 µM,1.48 µM,4.42 µM,2.82 µM,30.8 µM,4.29 µM,78.8 µM,8.78 µM,22.4 µM,,,3.06 µM,14.5 µM,3.38 µM,15.1 µM

# Source: PubChem BioAssay (NCI)
